Experimental data from the supplement of paper PMC12076712.
± gives the standard deviation of the averaged measurements.

Tests used:
Experiment in all cases: pIC50, kinobeads binding competition
Conditions in all cases: cell material: Jurkat lysate
[1] = molecular target: T1, NEK1 (UniProt Q96PY6)
T1 sequence (whole entry): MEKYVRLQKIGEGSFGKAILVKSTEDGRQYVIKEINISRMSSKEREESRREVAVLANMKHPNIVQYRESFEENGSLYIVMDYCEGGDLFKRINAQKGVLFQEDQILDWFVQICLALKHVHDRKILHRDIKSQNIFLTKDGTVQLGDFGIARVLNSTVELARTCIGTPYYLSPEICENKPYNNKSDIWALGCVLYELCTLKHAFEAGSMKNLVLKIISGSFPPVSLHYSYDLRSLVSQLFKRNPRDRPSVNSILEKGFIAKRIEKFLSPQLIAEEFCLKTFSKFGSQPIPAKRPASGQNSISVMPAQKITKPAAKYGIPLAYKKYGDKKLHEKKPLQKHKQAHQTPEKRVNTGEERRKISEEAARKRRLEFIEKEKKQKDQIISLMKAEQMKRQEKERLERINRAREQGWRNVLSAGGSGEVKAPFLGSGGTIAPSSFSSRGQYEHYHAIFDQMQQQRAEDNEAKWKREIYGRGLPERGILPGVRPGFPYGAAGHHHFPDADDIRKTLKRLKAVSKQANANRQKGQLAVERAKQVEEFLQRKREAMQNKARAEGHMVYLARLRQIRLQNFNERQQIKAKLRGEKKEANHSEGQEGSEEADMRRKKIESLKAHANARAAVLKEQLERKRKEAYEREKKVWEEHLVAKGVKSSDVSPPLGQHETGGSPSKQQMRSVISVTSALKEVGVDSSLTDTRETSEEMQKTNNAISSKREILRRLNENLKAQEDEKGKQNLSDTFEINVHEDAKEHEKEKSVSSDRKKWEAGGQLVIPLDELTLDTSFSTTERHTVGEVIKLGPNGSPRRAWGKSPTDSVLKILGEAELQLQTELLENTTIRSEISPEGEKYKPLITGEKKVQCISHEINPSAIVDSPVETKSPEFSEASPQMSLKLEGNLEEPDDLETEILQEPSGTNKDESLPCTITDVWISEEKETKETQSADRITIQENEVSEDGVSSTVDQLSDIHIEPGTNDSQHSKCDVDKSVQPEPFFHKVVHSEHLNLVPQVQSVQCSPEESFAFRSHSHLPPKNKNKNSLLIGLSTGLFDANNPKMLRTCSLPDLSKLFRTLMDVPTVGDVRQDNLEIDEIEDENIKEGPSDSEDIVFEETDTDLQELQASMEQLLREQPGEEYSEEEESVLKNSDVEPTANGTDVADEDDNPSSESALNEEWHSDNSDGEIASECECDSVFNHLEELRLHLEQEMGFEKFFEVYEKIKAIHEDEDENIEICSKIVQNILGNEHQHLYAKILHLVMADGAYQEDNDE

[2] = molecular target: RAF1 (UniProt P04049)
RAF1, sequence (P04049 whole entry): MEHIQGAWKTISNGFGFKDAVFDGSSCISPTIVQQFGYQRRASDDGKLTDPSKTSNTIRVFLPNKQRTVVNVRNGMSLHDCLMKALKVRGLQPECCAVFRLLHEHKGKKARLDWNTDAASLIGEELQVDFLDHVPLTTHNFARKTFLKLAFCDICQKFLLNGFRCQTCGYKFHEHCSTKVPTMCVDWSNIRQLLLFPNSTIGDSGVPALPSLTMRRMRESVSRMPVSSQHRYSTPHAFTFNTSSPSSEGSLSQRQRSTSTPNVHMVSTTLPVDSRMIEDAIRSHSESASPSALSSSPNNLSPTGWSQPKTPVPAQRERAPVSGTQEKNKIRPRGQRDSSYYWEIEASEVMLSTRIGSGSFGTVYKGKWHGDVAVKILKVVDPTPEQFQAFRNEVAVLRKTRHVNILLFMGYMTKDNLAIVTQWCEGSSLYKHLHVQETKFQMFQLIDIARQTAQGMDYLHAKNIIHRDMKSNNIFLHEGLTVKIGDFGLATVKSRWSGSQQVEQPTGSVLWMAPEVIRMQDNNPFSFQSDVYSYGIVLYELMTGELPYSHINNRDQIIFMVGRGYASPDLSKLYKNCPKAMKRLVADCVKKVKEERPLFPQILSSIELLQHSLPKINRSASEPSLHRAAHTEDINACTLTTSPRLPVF

[3] = molecular target: T2, TAOK2 (UniProt Q9UL54)
T2 sequence (whole entry): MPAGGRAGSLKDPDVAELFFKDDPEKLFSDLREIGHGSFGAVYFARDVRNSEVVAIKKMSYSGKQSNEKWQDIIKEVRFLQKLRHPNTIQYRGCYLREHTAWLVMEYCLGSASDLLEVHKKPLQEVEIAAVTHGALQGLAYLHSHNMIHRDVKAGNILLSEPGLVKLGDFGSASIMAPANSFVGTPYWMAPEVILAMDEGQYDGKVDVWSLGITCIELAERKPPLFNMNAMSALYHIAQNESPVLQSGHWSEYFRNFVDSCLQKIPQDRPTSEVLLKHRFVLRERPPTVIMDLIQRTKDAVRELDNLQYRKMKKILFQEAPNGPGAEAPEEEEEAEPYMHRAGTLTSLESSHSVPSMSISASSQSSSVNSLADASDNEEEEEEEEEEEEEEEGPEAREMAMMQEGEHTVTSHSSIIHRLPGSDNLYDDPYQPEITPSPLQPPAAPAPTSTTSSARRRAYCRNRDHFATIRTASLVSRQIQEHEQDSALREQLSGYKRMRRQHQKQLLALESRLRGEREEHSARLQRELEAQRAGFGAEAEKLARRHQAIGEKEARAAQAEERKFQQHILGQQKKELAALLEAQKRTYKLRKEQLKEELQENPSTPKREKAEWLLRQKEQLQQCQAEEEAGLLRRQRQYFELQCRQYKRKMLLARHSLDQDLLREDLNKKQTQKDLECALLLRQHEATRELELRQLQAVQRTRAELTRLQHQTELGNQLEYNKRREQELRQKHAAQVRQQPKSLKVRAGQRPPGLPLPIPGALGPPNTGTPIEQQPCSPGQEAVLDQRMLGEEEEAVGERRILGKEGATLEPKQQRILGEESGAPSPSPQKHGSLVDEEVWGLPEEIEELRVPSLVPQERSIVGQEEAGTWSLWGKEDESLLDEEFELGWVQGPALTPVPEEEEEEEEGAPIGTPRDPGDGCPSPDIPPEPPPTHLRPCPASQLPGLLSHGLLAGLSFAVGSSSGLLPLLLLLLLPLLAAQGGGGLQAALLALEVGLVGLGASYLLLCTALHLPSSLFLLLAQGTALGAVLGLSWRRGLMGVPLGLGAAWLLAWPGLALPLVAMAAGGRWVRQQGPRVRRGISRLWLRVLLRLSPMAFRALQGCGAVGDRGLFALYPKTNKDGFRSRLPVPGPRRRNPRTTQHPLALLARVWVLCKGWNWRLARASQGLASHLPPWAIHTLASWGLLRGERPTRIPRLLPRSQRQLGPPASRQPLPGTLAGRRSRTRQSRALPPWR

[4] = molecular target: UniProt O96017
UniProt O96017, sequence (O96017 whole entry): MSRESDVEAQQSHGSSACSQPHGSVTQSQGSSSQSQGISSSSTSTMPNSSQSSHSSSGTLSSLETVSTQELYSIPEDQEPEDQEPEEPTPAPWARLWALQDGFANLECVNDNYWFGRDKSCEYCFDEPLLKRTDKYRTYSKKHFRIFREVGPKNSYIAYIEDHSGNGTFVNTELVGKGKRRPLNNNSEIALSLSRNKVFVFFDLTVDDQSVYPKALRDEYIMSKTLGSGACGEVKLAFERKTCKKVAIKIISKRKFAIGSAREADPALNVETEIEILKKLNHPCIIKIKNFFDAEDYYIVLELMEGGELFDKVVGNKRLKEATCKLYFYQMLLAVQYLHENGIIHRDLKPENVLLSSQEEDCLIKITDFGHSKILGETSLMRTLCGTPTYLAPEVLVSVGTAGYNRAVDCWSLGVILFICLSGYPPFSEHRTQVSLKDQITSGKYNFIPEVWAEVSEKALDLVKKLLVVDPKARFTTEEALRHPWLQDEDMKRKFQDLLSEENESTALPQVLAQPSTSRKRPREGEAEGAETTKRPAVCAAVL

[5] = molecular target: UniProt Q13233
UniProt Q13233, sequence (Q13233 whole entry): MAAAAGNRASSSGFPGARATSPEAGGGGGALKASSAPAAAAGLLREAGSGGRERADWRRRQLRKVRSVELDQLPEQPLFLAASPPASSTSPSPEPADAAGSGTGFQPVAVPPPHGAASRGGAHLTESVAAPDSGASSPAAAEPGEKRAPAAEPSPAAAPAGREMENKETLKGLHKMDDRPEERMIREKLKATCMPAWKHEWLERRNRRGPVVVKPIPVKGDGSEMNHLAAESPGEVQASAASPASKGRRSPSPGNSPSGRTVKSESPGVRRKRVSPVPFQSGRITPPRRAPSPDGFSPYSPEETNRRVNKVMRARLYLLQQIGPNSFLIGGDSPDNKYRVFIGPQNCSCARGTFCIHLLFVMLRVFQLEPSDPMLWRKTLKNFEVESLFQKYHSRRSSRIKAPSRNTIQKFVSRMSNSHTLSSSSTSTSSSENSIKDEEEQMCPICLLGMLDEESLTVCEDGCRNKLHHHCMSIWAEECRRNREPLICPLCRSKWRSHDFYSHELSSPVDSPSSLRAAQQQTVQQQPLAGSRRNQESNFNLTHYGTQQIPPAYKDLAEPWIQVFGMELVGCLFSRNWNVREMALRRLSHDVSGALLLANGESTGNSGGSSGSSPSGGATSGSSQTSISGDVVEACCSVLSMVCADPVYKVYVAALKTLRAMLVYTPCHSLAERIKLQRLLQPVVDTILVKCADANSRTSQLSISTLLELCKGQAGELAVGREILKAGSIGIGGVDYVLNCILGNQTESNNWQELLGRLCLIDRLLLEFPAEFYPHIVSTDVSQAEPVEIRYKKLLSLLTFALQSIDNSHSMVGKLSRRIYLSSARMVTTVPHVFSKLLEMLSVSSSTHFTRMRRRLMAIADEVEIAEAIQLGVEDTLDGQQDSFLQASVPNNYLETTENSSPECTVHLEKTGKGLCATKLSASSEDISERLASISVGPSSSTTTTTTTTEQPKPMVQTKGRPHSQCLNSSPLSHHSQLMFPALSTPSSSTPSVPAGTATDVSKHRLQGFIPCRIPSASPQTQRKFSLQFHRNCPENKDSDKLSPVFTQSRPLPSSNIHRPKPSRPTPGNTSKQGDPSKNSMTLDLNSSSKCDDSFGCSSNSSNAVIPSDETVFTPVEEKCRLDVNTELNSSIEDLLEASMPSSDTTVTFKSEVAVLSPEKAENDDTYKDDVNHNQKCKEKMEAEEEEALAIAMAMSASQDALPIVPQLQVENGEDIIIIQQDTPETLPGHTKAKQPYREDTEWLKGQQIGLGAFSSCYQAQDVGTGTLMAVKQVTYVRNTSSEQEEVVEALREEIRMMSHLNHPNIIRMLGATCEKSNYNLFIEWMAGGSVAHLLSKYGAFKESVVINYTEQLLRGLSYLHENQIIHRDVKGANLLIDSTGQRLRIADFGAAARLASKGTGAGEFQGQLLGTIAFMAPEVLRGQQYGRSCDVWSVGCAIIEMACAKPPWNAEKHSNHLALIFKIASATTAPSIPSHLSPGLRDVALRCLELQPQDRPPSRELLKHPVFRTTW

[6] = molecular target: UniProt Q8NI60
UniProt Q8NI60, sequence (Q8NI60 whole entry, looked up): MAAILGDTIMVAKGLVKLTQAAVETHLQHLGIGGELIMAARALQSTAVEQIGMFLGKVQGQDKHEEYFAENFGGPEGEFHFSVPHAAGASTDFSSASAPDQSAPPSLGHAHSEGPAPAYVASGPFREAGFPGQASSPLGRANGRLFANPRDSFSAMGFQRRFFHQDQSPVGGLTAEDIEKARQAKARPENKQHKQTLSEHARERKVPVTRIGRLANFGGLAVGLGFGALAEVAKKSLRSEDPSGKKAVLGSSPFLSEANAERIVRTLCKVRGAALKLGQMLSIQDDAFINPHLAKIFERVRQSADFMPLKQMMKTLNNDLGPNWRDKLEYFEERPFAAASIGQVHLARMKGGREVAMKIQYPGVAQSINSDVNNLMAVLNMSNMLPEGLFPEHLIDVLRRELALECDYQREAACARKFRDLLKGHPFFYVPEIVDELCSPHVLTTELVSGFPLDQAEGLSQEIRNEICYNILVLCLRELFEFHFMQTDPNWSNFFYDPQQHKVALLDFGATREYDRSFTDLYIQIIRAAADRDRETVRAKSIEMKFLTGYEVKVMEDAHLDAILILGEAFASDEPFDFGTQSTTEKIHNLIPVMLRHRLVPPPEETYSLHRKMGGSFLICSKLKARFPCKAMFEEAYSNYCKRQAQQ

[7] = molecular target: T3, UniProt Q8TBX8
T3 sequence (whole entry): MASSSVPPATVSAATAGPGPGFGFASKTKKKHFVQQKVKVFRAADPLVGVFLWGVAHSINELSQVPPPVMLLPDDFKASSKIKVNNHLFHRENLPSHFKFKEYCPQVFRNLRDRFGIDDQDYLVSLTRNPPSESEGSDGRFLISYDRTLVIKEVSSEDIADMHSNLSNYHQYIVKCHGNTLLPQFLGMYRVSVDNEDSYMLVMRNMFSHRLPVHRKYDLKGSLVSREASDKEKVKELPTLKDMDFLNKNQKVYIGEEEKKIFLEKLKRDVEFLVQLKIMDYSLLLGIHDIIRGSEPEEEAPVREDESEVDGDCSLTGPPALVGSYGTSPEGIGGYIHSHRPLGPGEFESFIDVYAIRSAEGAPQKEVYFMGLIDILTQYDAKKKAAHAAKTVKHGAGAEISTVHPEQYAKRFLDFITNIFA

Measured: pIC50

CCc1cnn2c(NCc3ccc[n+]([O-])c3)cc(N3CCCC[C@H]3CCO)nc12 [dinaciclib]
5.6 ± 0.085: [3]
< 4.52: all other assays above
